According to US5461049A, “Amide tetrazole ACAT inhibitors” (Warner-Lambert Company, priority 1994, dated 1995):

Tests used:
[1] = biological target: T1, acyl-CoA: cholesterol acyltransferase (ACAT) (Rattus norvegicus, UniProt Q7TQM4); experiment: ACAT inhibition in vitro (LAI): radiolabeled cholesterol oleate formed from radiolabeled oleic acid in rat liver microsomes; assay type: biochemical; conditions: concentration required to inhibit the activity of the enzyme by 50%
T1 construct: tissue preparation containing rat liver microsomes; from tissue; host or cells: rat liver microsomes
T1 sequence (Q7TQM4 1-524): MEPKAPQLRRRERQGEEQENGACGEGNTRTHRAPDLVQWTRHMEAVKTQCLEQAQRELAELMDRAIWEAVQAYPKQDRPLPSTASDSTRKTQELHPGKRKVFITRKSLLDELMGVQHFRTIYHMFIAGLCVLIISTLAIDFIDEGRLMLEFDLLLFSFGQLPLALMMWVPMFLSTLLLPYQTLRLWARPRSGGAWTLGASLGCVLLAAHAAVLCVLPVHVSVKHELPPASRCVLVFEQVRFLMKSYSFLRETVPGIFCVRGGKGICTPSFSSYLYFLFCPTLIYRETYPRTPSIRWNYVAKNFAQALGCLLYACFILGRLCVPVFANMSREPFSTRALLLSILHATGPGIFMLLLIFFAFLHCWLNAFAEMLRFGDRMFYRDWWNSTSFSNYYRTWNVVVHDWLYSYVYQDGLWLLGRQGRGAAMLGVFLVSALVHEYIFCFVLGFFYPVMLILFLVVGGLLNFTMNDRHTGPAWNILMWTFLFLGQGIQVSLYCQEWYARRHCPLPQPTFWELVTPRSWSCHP
Method: The ability of representative compounds of the present invention to inhibit ACAT was measured using an in vitro test more fully described in F. J. Field and R. G. Salone, Biochemica et Biophysica Acta, 712:557-570 (1982). The test assesses the ability of a test compound to inhibit the acylation of cholesterol by oleic acid by measuring the amount of radiolabeled cholesterol oleate formed from radiolabeled oleic acid in a tissue preparation containing rat liver microsomes (designated LAI).

[2] = APCC in vivo screen: change in total cholesterol in rats on high fat, high cholesterol diet; design: species or system male Sprague-Dawley rats; conditions: Rattus norvegicus, po, 16 h; 30 mg/kg by gavage, single dose at 4 PM, sacrificed at 8 AM; 5.5% peanut oil, 1.5% cholesterol, 0.5% cholic acid diet; vs control animals given vehicle and diet only; read-out: APCC (% change in TC)
From the text: In one in vivo screen designated APCC, male Sprague-Dawley rats (200-225 g body weight) were randomly divided into treatment groups and dosed at 4 PM with either vehicle (CMC/Tween) or suspensions of invention compounds in vehicle. The normal chow diet was then replaced with a high fat, high cholesterol diet (5.5% peanut oil, 1.5% cholesterol, and 0.5% cholic acid). The rats consumed this diet ad libitum during the night and were sacrificed at 8 AM to obtain blood samples for cholesterol analysis using standard procedures. Statistical differences between mean cholesterol values for the same vehicle were determined using analysis of variance followed by Fisher's least significant test. The results of this trial for representative compounds of the present invention also appear in Table I as the percent change in total cholesterol (%TC) from control animals given vehicle and diet only. All compounds in the APCC test reported in Table 1 were administered by garage at 30 mg/kg.

Structure (SMILES) | IC50 [1] | change in vivo at 30 mg/kg [2]
CCCCCCCCCCCCn1nnc(C(=NN)C(=O)Nc2c(C(C)C)cccc2C(C)C)n1 [Example 27, N-(2,6-diisopropylphenyl)-2-(2 dodecyl-2H-tetrazol-5-yl)-2-hydrazono-acetamide] | 510 nM | –
CCCCCCCCCCCCn1nnnc1/C(=N\OCC)C(=O)Nc1c(C(C)C)cccc1C(C)C [Example 41, E-N-(2,6-Diisopropylphenyl)-2-(1-dodecyl-1H-tetrazol-5-yl)-2-ethoxyimino-acetamide] | 25 nM | -65%
CCCCCCCCCCCCn1nnc(C(C(=O)Nc2c(C(C)C)cccc2C(C)C)N2CCOCC2)n1 (racemic) [Example 2, (±)-N-(2,6-Diisopropylphenyl)-2-(2-dodecyl-2H-tetrazol-5-yl)-2-morpholino-4-yl-acetamide] | 18 nM | -57%
CCCCCCCCCCCCn1nnc(/C(=N/OCC)C(=O)Nc2c(C(C)C)cccc2C(C)C)n1 [Example 23, Z-N-(2,6-diisopropylphenyl) -2-(2-dodecyl-2H-tetrazol-5-yl)-2-ethoxyimino-acetamide] | 2 nM | -74%
CCCCCCCCCCCCn1nnc(C(C(=O)Nc2c(C(C)C)cc(C(C)C)cc2C(C)C)N2CCCC2)n1 (racemic) [Example 18, (±)-N-2,4,6-triisopropylphenyl-2-(2-dodecyl-2H-tetrazol-5-yl)-2-pyrrolidin-1-yl-acetamide] | 222 nM | -20%
CCCCCCCCCCCCn1nnc(C(=NO)C(=O)Nc2c(C(C)C)cccc2C(C)C)n1 [Example 12, N-(2,6-diisopropylphenyl)-2-(2-dodecyl-2H-tetrazol-5-yl)-2-hydroxyimino-acetamide] | 29 nM | –
CCCCCCCCCCCCn1nnc(/C(=N\OCC)C(=O)Nc2c(C(C)C)cccc2C(C)C)n1 [Example 24, E-isomer of N-(2,6-diisopropylphenyl)-2-(2-dodecyl-2H-tetrazol-5-yl)-2-ethoxyimino-acetamide] | 49 nM | -31%
CCCCCCCCCCCCn1nnc(C(C(=O)Nc2c(C(C)C)cccc2C(C)C)N2CCN(C)CC2)n1 (racemic) [Example 6, (±)-N-(2,6-Diisopropylphenyl)-2-(2-dodecyl-2-tetrazol-5-yl)-2-(4-methyl-piperazin-1-yl)-acetamide] | 86 nM | -51%
CCCCCCCCCCCCn1nnc(C(C(=O)Nc2c(C(C)C)cccc2C(C)C)N(CCO)CCO)n1 (racemic) [Example 8, (±)-2-[Bis-(2-hydroxyethyl)-amino]-N-(2,6-diisopropylphenyl) -2-(2-dodecyl-2H-tetrazol-5-yl)-acetamide] | 390 nM | -11%
CCCCCCCCCCCCn1nnc(C(C(=O)Nc2c(OC)cc(OC)cc2OC)N2CCCC2)n1 (racemic) [Example 17, (±)-N-(2,4,6-trimethoxyphenyl) -2-(2-dodecyl-2H-tetrazol-5-yl)-2-pyrrolidin-1-yl-acetamide] | 40 nM | -67%
CCCCCCCCCCCCn1nnc(C(C(=O)Nc2c(C(C)C)cccc2C(C)C)N(CC)CC)n1 (racemic) [Example 7, (±)-2-Diethylamino-N-(2,6-diisopropylphenyl) -2-(2-dodecyl-2H-tetrazol-5-yl)-acetamide] | 32 nM | -28%
CCCCCCCCCCCCn1nnc(C(=NNc2ccccc2)C(=O)Nc2c(C(C)C)cccc2C(C)C)n1 [Example 28, N-(2,6-diisopropylphenyl)-2-(2-dodecyl-2H-tetrazol-5-yl)-2-phenylhydrazono-acetamide] | 150 nM | -18%
CCCCCCCCCCCCn1nnc(C(C(=O)Nc2c(C(C)C)cccc2C(C)C)n2ccnc2)n1 (racemic) [Example 5, (±)-N-(2,6-Diisopropylphenyl)-2-(2-dodecyl-2H-tetrazol-5-yl) -2-imidazol-1-yl-acetamide] | 215 nM | -46%
CCCCCCCCCCCCn1nnc(C(C(=O)Nc2c(C(C)C)cccc2C(C)C)N(C)C)n1 (racemic) [Example 9, (±)-N-(2,6-Diisopropylphenyl)-2-dimethylamino-(2-dodecyl-2H-tetrazol-5-yl)-acetamide] | 40 nM | -40%
CCCCCCCCCCCCn1nnc(C(NC(C)=O)C(=O)Nc2c(C(C)C)cccc2C(C)C)n1 (racemic) [Example 32, (±)-N-(2,6-diisopropylphenyl)-2-(2-dodecyl-2H-tetrazol-5-yl)-2-acetylamino-acetamide] | > 1000 nM | -9%
CCCCCCCCCCCCn1nnc(C(NC2CCCCC2)C(=O)Nc2c(C(C)C)cccc2C(C)C)n1 (racemic) [Example 36, (±)-N-(2,6-diisopropylphenyl)-2-(2-dodecyl-2H-tetrazol-5-yl)-2-cyclohexylamino-acetamide] | 212 nM | –
CCCCCCCCCCCCn1nnc(C(N)C(=O)Nc2c(C(C)C)cccc2C(C)C)n1 (racemic) [Example 10, (±)-2-Amino-N-(2,6-diisopropylphenyl)-2-(2-dodecyl-2H-tetrazol-5-yl)-acetamide] | 94 nM | -51%
CCCCCCCCCCCCn1nnc(C(=O)C(=O)Nc2c(C(C)C)cccc2C(C)C)n1 [Example 11, N-(2,6-diisopropylphenyl)-2-(2-dodecyl-2H-tetrazol-5-yl)-2-oxo-acetamide] | 135 nM | -50%
CCCCCCCCCCCCn1nnc(/C(=N/OC)C(=O)Nc2c(C(C)C)cccc2C(C)C)n1 [Example 14, Z-N-(2,6-diisopropylphenyl) -2-(2-dodecyl-2H-tetrazol-5-yl)-2-methoxyiminoacetamide] | 40 nM | -19%
CCCCCCCCCCCCn1nnc(/C(=N\OC)C(=O)Nc2c(OC)cc(OC)cc2OC)n1 [Example 15, E-2-(2-Dodecyl-2H-tetrazol-5-yl)-2-methoxyimino -N-(2,4,6-trimethoxyphenyl)-acetamide] | 28 nM | -70%
CCCCCCCCCCCCn1nnc(C(C(=O)Nc2c(C(C)C)cccc2C(C)C)N2CCCCC2)n1 (racemic) [Example 3, (±)-N-(2,6-Diisopropylphenyl)-2-(2-dodecyl-2H-tetrazol-5-yl)-2-piperidin-1-yl-acetamide] | 15 nM | -47%
CCCCCCCCCCC(C)n1nnc(/C(=N\OC)C(=O)Nc2c(C(C)C)cccc2C(C)C)n1 (stereo not shown) [Example 16, E-N-(2,6-Diisopropylphenyl)-2-(2-(1-methylundecyl) -2H-tetrazol-5-yl)-2-methoxyimino-acetamide] | 3 nM | -67%
CCCCCCCCCCCCn1nnc(C(C(=O)Nc2c(C(C)C)cccc2C(C)C)N2CCSCC2)n1 (racemic) [Example 1, (±)-N-(2,6-diisopropylphenyl) -2-(2-dodecyl-2H-tetrazol-5-yl) -2-thiomorpholin-4-yl-acetamide] | 12 nM | -56%
CCCCCCCCCCCCn1nnc(C(C(=O)Nc2c(C(C)C)cccc2C(C)C)N2CCCC2)n1 (racemic) [Example 4, (±) -N-(2,6-Diisopropylphenyl)-2-(2-dodecyl-2H-tetrazol-5-yl) -2-pyrrolidinyl-1-yl-acetamide] | 9 nM | -59%
CCCCCCCCCCCCn1nnc(C(=NN(C)C)C(=O)Nc2c(C(C)C)cccc2C(C)C)n1 [Example 29, N-(2,6-diisopropylphenyl)-2-(2-dodecyl-2H-tetrazol-5-yl)-2-dimethylhydrazono-acetamide] | 43 nM | -70%
CCCCCCCCCCCCn1nnc(/C(=N\OC)C(=O)Nc2c(C(C)C)cccc2C(C)C)n1 [Example 13, E-N-(2,6-Diisopropylphenyl)-2-(2-dodecyl-2H-tetrazol-5-yl)-2-methoxyimino-acetamide] | 2 nM | -43%
